Data reported in BindingDB's records for doi:10.1126/science.2551039 (UniversitÄT Heidelberg, 1989).
Values joined by “and” are separate entries in the source; they are usually repeats but may differ in a detail not shown here. Identical values can stand only once.

Columns and labels:
[1] = target: T1, Gamma-aminobutyric acid receptor subunit alpha-3 (Homo sapiens, UniProt P34903)
T1 sequence (P34903 whole entry): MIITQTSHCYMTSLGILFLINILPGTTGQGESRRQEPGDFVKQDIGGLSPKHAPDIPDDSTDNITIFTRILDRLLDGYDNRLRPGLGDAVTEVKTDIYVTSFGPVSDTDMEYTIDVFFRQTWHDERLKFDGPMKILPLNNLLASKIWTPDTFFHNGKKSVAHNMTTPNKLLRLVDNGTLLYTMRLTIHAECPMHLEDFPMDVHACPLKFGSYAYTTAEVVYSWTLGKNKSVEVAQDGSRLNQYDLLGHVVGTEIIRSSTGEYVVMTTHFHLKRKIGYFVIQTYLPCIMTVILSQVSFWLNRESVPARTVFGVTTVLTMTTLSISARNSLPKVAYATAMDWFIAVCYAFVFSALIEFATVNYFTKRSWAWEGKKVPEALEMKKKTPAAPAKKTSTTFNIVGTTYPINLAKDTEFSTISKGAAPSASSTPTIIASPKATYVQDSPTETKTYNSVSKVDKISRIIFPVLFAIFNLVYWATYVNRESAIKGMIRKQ

[2] = target: T2, Gamma-aminobutyric acid receptor subunit alpha-1 (Homo sapiens, UniProt P14867)
T2 sequence (P14867 whole entry): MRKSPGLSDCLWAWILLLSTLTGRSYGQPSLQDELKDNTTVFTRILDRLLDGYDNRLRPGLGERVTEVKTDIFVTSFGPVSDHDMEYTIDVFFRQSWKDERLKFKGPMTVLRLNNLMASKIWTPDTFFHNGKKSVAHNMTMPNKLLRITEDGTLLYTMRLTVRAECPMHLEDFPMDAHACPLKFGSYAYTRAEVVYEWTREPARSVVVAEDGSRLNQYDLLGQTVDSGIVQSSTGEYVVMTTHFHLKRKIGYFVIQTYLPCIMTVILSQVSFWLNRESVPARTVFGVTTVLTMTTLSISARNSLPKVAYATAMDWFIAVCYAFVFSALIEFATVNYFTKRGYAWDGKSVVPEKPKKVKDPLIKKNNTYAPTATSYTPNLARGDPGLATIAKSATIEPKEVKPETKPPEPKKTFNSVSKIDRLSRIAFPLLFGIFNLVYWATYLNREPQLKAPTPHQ

[3] = target: T3, Gamma-aminobutyric acid receptor subunit alpha-2 (Homo sapiens, UniProt P47869)
T3 sequence (P47869 whole entry): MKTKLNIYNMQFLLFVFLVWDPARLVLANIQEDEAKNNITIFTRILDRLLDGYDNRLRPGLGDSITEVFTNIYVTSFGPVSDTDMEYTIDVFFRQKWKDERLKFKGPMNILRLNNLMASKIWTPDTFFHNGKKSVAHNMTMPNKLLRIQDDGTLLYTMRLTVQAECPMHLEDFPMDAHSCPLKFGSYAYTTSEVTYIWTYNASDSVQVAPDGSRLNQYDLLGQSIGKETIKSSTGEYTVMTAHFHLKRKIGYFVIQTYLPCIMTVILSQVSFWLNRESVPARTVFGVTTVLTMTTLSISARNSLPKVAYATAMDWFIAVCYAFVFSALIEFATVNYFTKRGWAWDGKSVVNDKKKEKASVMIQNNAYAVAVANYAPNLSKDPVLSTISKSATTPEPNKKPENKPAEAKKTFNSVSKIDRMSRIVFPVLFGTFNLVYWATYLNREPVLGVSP

SMILES: COC(=O)c1cc2c(cn1)[nH]c1ccccc12
- Ki [1]: 4.1 nM
- Ki [2]: 0.78 nM
- Ki [3]: 2.9 nM

SMILES: CCc1c(C(=O)OC)ncc2[nH]c3cc(OC)c(OC)cc3c12 [NSC_104999]
- Ki [1]: 10.6 nM
- Ki [2]: 5.3 nM
- Ki [3]: 14.4 nM

SMILES: O=C1CN=C(c2ccccc2Cl)c2cc([N+](=O)[O-])ccc2N1 [5-(2-chlorophenyl)-7-nitro-1,3-dihydro-2H-1,4-benzodiazepin-2-one]
- Ki [1]: 2 nM
- Ki [2]: 1.27 nM
- Ki [3]: 1.7 nM

SMILES: O=C1CN=C(c2ccccc2F)c2cc(Cl)ccc2N1CC(F)(F)F [NSC_93250]
- Ki [1]: 205 nM
- Ki [3]: 236 nM

SMILES: Cc1nnc2ccc(-c3cccc(C(F)(F)F)c3)nn12
- Ki [1]: 1790 nM and 1620 nM
- Ki [2]: 405 nM and 108 nM
- Ki [3]: 2000 nM and 1740 nM
